This is an account of results in article PMC2811219 (The Journal of infectious diseases, 2010).

For data set [1], the system named is HIV-1. Kind of data set: Anti-HIV-1 activity in CEM cell cultures. In kind it is cell-based. The conditions noted are these: for EC50: read-out: EC50 (CEM), effective concentration that inhibits 50% of HIV-1 replication, CEM cells.
In data set [2] the test system is HIV-2ROD. Briefly: Anti-HIV-2 activity in CEM cells. The data set is classed as cell-based. The conditions noted are these: HIV-2ROD-infected CEM cells; data not shown.
The nature of data set [3]: Viability assay in MT-4 cell cultures. The data set is classed as cell-based, human. The conditions noted are these: human, MT-4 cells.
Data set [4] is described as follows: in vitro. In kind it is cell-based, human. To be noted: human.
Data set [5] has as its system HIV-1LAI.04. Briefly: Anti-HIV-1 activity in MT-4 cell cultures. In kind it is cell-based. The conditions noted are these: MT-4 cells; for EC50: read-out: EC50 (MT-4), effective concentration that inhibits 50% of HIV-1 replication.
In data set [6] the test system is CEM cells. Briefly: in vitro. In kind it is cell-based, human.
Data set [7] has as its system MT-4 cells. Kind of data set: MT-4 cell growth / proliferation. In kind it is cell-based, human. To be noted: read-out: IC50 (MT-4), concentration that inhibit cell growth by 50%.
The subject of data set [8] is CEM cells. Briefly: CEM cell growth. In kind it is cell-based, human. The conditions noted are these: read-out: IC50 (CEM), concentration that inhibit cell growth by 50%.
The test system of data set [9] is HIV-1 NL4.3 (X4). Kind of data set: p24 production in virus-infected PBMC, HIV-1 NL4.3. The data set is classed as cell-based. The conditions noted are these: read-out: EC50, NL4.3.
Data set [10] has as its system HIV-1 BaL (R5). Briefly: p24 production in virus-infected PBMC, HIV-1 BaL. In kind it is cell-based. The conditions noted are these: read-out: EC50, BaL.
Data set [11] relates to HIV-1 UG275, R5 (clade A). Briefly: p24 production in virus-infected PBMC, HIV-1 UG275. The data set is classed as cell-based. The conditions noted are these: read-out: EC50, UG275.
In data set [12] the test system is HIV-1 US 3, R5 (clade B). Briefly: p24 production in virus-infected PBMC, HIV-1 US 3. The data set is classed as cell-based. The conditions noted are these: read-out: EC50, US 3.
Data set [13] relates to HIV-1 ETH 2220, R5 (clade C). Briefly: p24 production in virus-infected PBMC, HIV-1 ETH 2220. In kind it is cell-based. The conditions noted are these: read-out: EC50, ETH 2220.
Data set [14] relates to HIV-1 UG 270, X4 (clade D). Briefly: p24 production in virus-infected PBMC, HIV-1 UG 270. The data set is classed as cell-based. The conditions noted are these: read-out: EC50, UG 270.
Data set [15] deals with HIV-1 ID12, R5 (clade A/E). Briefly: p24 production in virus-infected PBMC, HIV-1 ID12. The conditions noted are these: read-out: EC50, ID12. The data set is classed as cell-based.
Data set [16] has as its system PBMC. Kind of data set: PBMC MTS viability staining. The data set is classed as cell-based, human.
For data set [17], the system named is HIV-1BaL. Kind of data set: HIV-1 replication in human cervicovaginal tissue ex vivo. The data set is classed as cell-based.
Data set [18] relates to HSV-2 strain G. Kind of data set: HSV-2 replication in human tonsillar tissue. The data set is classed as cell-based. To be noted: 1μM, day 12 post infection, n=4.
Data set [19] concerns clinical ACV-resistant HSV-2 isolate. Briefly: ACV-resistant HSV-2 replication in human tonsillar tissue. The data set is classed as cell-based. The conditions noted are these: variant without functional thymidine kinase, n=2.
The subject of data set [20] is HIV-1LAI.04. Kind of data set: HIV-1 replication in HIV-1/HSV-2 coinfected tonsillar tissue. The conditions noted are these: 1μM, n=5. The data set is classed as cell-based.
The subject of data set [21] is HSV-2 (G). Kind of data set: HSV-2 replication in HIV-1/HSV-2 coinfected tonsillar tissue. The data set is classed as cell-based. To be noted: 1μM, n=5.
Data set [22] concerns MT-4 cells. Briefly: Viability assay in MT-4 cell cultures. In kind it is cell-based, human.
The subject of data set [23] is human tonsillar tissue T cells. In kind it is cell-based.
Data set [24] has as its system HIV-1LAI.04. Kind of data set: HIV-1 replication in human tonsillar tissue ex vivo. In kind it is cell-based.
Data set [25] deals with HIV-1LAI.04. Briefly: Flow-cytometry of HIV-infected. In kind it is cell-based. To be noted: tonsillar tissue, day 12 post infection; control 11.71 ± 3.87%; n=4.

Read-outs that look alike come from different tables or passages of the source. Where only a bound is given, the exact number is not on record here.

As for `Nc1nc2c(ncn2COCCO)c(=O)[nH]1` [ACV, acyclovir, reference compound], the “suppression of viral replication” value in data set [1] (HIV-1IIIB-infected CEM cells, data not shown) is “did not efficiently suppress viral replication”; in data set [2] it was “did not efficiently suppress viral replication”. Moreover, the CC50 in [3] and in [4] was more than 150 µM each time.
As for `C[C@H](NP(=O)(OCCOCn1cnc2c(=O)[nH]c(N)nc21)Oc1ccccc1)C(=O)OCc1ccccc1` (stereo partly shown) [Cf2648], the “SI, selective index or ratio of CC50 (MT-4)/EC50” value (“SI, selective index or ratio” below) in data set [5] was more than 26. Moreover, the EC50 was 5.7 ± 1.6 µM in data set [5]; 6.4 ± 5.8 µM in data set [1]; 13 ± 3.8 µM in data set [9]; 6.6 ± 1.4 µM in data set [10]; 25 ± 10 µM in [11]; 28 ± 12 µM in data set [12]. The EC50 in [13] worked out at 19 ± 14 µM; in [14] it was 55 ± 40 µM; in data set [15], 16 ± 15 µM. The CC50 in data set [6] is more than 150 µM; in data set [16] (read-out: CC50, 50% cytostatic concentration, PBMC, MTS viability staining method) it was 319 µM. Besides, the IC50 stood at 34 ± 11 µM in [7] and 33 ± 7.1 µM in data set [8]. Besides, the “inhibition of HIV-1 replication, drug removed on day 3 post-infection” value in data set [17] (cervicovaginal tissue, 1μM, not replenished, n=4) is 57.1 ± 16.0%. In data set [17] (cervicovaginal tissue, 1μM, treated overnight then infected with HIV-1BaL, n=2), the “inhibition of HIV replication, drug replenished at each medium change” value was determined as 100%. Also, the “inhibition of HIV replication on day 12 post-infection, 3-day incubation followed by drug removal” value in data set [17] (cervicovaginal tissue, 5μM, n=3) came out at 90.3 ± 9.2%. The “suppression of HSV-2 replication” value in data set [18] is recorded as 99.6 ± 0.3%. Further, the “inhibition of replication of ACV-resistant HSV-2 variant” value in data set [19] is 94.9 ± 5.1%. Besides, the “inhibition of HIV replication in HIV-1/HSV-2 coinfected lymphoid tissue” value in data set [20] was 81.1 ± 5.9%. For the same compound, the “inhibition of HSV-2 replication in HIV-1/HSV-2 coinfected lymphoid tissue” value in data set [21] is given as 99.6 ± 0.2%.
For the compound `CC(C)OC(=O)[C@H](C)NP(=O)(OCCOCn1cnc2c(=O)[nH]c(N)nc21)Oc1cccc2ccccc12` (stereo partly shown) [Cf2681], the “SI, selective index or ratio” value in [5] is more than 28. Besides, the EC50 in [5] was determined as 5.4 µM; in data set [1] it was 6.2 ± 5.4 µM. Further, the CC50 in data set [22] and in data set [6] was more than 150 µM throughout. The values for the IC50 in data set [7] and in data set [8] were 73 µM and 36 ± 15 µM, respectively. The “effect on numbers of CD4+ T cells and subsets in treated tissues” value in [23] is recorded as “did not affect the numbers of these cells”.
Regarding `COC(=O)[C@H](C)NP(=O)(OCCOCn1cnc2c(=O)[nH]c(N)nc21)Oc1cccc2ccccc12` (stereo partly shown) [Cf2649], the “SI, selective index or ratio” value in data set [5] is more than 32. Moreover, the EC50 in data set [5] came out at 4.7 ± 2.1 µM; in data set [9], 11 ± 3.1 µM; in data set [10], 5.2 ± 2.4 µM; in [11], 16 ± 11 µM; in [12], 4.9 ± 6.1 µM; in data set [13] it was 6.8 ± 3.9 µM. Also, the values for the EC50 in data set [14] and in data set [15] were 10 ± 12 µM and 53 ± 4.4 µM, respectively. Also, the CC50 in [22] is more than 150 µM; in [6], more than 150 µM; in data set [16], 352 µM. In addition, the IC50 was 19 ± 3.2 µM in data set [7] and 57 ± 45 µM in data set [8]. Moreover, in data set [24] (1 μM), the “suppression of HIV replication in tonsillar tissue” value is “completely suppresses HIV replication”. For the same compound, the “inhibition of HIV-1 replication, treatment started 2 days post-infection” value in [24] (tonsillar tissue, 1μM, n=3) was 94.4 ± 5.5%. Also, the “inhibition of HIV-1 replication, treatment started 4 days post-infection” value in data set [24] (tonsillar tissue, 1μM, n=3) amounted to 90.2 ± 9.8%. Besides, the “inhibition of HIV-1 replication, treatment started 6 days post-infection” value in [24] (tonsillar tissue, 1μM, n=3) stood at 54.1 ± 13.5%. Further, the “inhibition of HIV-1 replication, treatment started simultaneously with infection” value in [24] (tonsillar tissue, 1μM, n=3) turned out to be 96.9 ± 3%. Also, the “fraction of CD8- T cells HIV-infected (p24+)” value in data set [25] turned out to be 3.16 ± 1.63%. Further, the “suppression of HIV-1BAL replication in cervicovaginal tissue” value in data set [17] (1 μM for 12 days, relative to donor-matched infected tissues, n=4) is reported as 75.8 ± 10.4%.
Regarding `CCOC(=O)[C@H](C)NP(=O)(OCCOCn1cnc2c(=O)[nH]c(N)nc21)Oc1cccc2ccccc12` (stereo partly shown) [Cf2676], in data set [5], the “SI, selective index or ratio” value is more than 88. Moreover, the figures for the EC50 in [5] and in data set [1] were 1.7 ± 0.8 µM and 12 ± 9.8 µM, respectively. The CC50 in [22] and in data set [6] was more than 150 µM each time. In addition, the IC50 in data set [7] stood at 12 ± 5.3 µM; in data set [8], 32 ± 7.8 µM.
